# Data published in patent publication US5935972A, “Benzofuran derivatives as tachykinin antagonists” (Glaxo Group Limited, priority 1997, dated 1999).
# Counter-ions that a name gives are not always drawn.
# Tested on: radiation-induced emesis
# Test: radiation-induced emesis in the ferret
# Type: in vivo
# Conditions: whole body irradiation 2 Grey, dose 0.3 mg/kg s.c. immediately after irradiation
# Procedure: In this model of emesis the onset of retching and vomiting occurs approximately 20 minutes after whole body irradiation (2 Grey.ident.200 Rads). The test compound is administered (e.g. i.p, p.o., i.v., s.c) immediately after irradiation and its effect on emesis determined by comparison with appropriate controls.
smiles,measurement,value
"Cc1nnnn1-c1cc(CN[C@H]2CCCN[C@H]2c2ccccc2)c2occc2c1 [Example 1, [5-(5-Methyl-tetrazol-1-yl)-benzofuran-7-ylmethyl]-(2S-phenyl-piperidin-3S-yl)-amine dihydrochloride]",inhibition of radiation-induced emesis,inhibited radiation-induced emesis
